Experimental data from US9850216B2 (H. LEE MOFFITT CANCER CENTER AND RESEARCH INSTITUTE, INC., priority 2013, dated 2017).
Values joined by “and” are separate entries in the source; they are usually repeats but may differ in a detail not shown here. Identical values can stand only once. Like-named read-outs stand apart in the source and are kept apart here. Values belong to the molecule of their own block, whether it stands above or below them.

What was measured:
ACK1 [1] = biological target: T1, ACK1 (Homo sapiens, UniProt Q07912); assay: ACK1 ELISA: phosphorylation of AKT-derived peptide; format: biochemical; details: 10 μM, Table 1, replicate values listed
T1 sequence (Q07912 whole entry): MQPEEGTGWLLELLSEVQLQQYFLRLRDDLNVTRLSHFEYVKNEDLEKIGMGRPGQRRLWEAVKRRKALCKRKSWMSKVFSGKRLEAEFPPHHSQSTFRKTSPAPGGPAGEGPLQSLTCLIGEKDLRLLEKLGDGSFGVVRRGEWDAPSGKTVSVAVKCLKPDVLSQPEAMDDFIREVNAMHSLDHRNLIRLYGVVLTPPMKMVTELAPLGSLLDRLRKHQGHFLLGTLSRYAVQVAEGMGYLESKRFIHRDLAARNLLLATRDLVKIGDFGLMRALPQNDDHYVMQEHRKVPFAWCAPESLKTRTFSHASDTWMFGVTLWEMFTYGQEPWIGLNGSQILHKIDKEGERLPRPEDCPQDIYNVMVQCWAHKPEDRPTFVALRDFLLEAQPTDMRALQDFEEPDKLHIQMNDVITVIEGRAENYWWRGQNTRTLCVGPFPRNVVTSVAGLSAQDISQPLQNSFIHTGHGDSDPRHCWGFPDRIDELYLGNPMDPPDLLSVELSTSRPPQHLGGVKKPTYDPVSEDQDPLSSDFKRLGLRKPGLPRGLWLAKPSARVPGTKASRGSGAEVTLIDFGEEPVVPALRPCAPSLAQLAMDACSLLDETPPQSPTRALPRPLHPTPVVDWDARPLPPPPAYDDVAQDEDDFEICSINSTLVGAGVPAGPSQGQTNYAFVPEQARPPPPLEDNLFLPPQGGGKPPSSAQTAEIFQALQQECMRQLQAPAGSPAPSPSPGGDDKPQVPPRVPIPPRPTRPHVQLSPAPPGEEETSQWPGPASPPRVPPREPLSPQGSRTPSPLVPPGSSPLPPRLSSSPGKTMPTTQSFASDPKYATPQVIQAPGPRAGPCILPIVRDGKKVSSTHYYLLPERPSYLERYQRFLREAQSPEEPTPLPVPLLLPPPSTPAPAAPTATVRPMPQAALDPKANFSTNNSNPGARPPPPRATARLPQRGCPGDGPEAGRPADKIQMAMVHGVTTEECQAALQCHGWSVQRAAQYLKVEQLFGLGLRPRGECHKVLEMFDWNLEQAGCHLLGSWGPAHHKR

ACK1 [2] = biological target: T1, ACK1; assay: 32P Hotspot assay (Reaction Biology), ACK1 IC50; format: biochemical
Method: (§1) 8 compounds were tested against […], ACK1, Src and ALK in various combinations. […] Reactions were carried out at 10 μM ATP.

c-Src = c-Src (Homo sapiens, UniProt P12931); assay: Kinase IC50 profiling, c-Src; format: biochemical; details: Table 3; 10-dose; 10 μM ATP; read-out: Compound IC50* (M): c-Src
c-Src, sequence (P12931 whole entry): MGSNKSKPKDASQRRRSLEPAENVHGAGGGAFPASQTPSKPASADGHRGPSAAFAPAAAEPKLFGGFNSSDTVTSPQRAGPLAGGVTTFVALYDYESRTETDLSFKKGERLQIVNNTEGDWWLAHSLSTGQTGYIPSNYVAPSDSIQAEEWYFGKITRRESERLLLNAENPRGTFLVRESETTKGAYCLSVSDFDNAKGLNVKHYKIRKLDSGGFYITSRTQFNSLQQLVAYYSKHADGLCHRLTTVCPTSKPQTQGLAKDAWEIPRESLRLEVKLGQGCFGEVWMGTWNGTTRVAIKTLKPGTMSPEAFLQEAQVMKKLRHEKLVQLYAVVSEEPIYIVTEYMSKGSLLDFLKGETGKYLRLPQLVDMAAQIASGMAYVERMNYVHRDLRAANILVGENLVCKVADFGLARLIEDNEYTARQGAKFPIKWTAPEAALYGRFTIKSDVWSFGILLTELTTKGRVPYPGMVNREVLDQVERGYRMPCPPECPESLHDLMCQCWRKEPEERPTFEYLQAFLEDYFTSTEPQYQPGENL
Method: as §1

ALK = ALK (Homo sapiens, UniProt Q9UM73); assay: Kinase IC50 profiling, ALK; format: biochemical; details: Table 4; 10-dose; 10 μM ATP; read-out: Compound IC50 (M), ALK
ALK, sequence (Q9UM73 19-1620): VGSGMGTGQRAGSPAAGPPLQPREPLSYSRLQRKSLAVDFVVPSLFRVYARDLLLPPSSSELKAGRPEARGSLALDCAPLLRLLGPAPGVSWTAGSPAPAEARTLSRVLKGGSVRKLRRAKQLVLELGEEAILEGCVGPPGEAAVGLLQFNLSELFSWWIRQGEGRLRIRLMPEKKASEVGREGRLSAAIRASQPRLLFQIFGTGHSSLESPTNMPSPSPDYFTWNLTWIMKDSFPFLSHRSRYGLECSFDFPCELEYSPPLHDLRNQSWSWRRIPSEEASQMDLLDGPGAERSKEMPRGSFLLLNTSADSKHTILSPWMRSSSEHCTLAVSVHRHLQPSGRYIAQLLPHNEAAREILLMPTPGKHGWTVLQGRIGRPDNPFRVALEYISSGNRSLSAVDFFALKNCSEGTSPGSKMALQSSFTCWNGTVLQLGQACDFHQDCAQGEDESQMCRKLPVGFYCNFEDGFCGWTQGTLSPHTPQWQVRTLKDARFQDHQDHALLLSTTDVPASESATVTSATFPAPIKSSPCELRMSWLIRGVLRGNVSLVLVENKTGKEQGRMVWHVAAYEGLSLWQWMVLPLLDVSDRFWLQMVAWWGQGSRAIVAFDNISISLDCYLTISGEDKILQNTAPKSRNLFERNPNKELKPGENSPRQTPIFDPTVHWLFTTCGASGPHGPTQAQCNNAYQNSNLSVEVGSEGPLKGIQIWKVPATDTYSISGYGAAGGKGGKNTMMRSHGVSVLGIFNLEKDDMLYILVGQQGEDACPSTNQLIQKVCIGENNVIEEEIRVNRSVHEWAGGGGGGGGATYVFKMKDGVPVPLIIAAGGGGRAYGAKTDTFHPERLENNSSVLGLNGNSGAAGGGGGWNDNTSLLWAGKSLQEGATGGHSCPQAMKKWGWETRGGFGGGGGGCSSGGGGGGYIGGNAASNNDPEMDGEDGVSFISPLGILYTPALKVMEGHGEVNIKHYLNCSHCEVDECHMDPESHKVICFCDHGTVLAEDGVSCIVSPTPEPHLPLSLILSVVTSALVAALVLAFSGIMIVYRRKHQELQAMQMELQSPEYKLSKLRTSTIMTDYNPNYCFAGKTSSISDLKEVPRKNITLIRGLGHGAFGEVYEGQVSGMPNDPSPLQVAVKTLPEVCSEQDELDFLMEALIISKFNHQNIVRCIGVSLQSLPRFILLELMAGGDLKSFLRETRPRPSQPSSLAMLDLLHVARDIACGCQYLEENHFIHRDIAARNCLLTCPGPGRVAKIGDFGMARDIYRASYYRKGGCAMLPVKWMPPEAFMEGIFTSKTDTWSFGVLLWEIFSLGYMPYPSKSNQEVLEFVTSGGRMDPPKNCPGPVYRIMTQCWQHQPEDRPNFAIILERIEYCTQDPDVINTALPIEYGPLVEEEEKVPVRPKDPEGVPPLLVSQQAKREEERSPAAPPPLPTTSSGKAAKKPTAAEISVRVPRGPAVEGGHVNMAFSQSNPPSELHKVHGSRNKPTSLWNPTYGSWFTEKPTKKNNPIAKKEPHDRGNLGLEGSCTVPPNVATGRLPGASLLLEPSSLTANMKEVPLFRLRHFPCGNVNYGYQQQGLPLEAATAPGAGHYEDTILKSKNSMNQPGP
Method: as §1

LNCaP cells = assay: Cell proliferation, trypan blue exclusion, LNCaP; format: cell-based, human; details: 36 hrs, viable cells by trypan blue exclusion, read-out: IC50, inhibition of cell growth in LNCaP cells
Method: (§2) The number of viable cells was counted by trypan blue exclusion assay.
(§3) Three distinct human prostate cancer derived cell lines, LNCaP, LAPC4 and VCaP were either DMSO treated or treated with 1, 2.5, 5, 7.5 and 10 μM of inhibitors, AIM-100, (R)-9b and (S)-9b for 36 hrs and the number of viable cells were counted by trypan blue exclusion assay.
(§4) The ability of the ACK1 inhibitors to suppress proliferation of prostate cancer cell lines were also assessed. AIM-100, an ACK1 inhibitor, originally screened by Amgen was used as a control. […] Overall, it appears that ACK1 is needed for androgen-independent growth of prostate cancer cells.

VCaP cells = assay: Cell proliferation, trypan blue exclusion, VCaP; format: cell-based, human; details: 36 hrs, viable cells by trypan blue exclusion, read-out: IC50, inhibition of cell growth in VCaP cells
Method: as §2, §3, §4

AR [3] = assay: AR protein levels in androgen-deprived prostate cancer cells, immunoblotting; format: cell-based, human; details: immunoblotting (FIG. 2)
Method: Transcriptional regulation of the AR gene itself is a paradigm that merits thorough investigation. […] Whether AR utilizes ACK1 to facilitate its transcriptional co-activator function is not known. […] Cells were also treated with ACK1-specific small molecule inhibitors, DZ1-067 or AIM-100.

AR [4] = assay: AR mRNA by real time PCR in androgen-deprived prostate cancer cells; format: cell-based, human; details: overnight treatment (FIG. 3a, b)
Excerpt: Total RNA was isolated followed by qPCR with AR primers. VCaP, *p=0.022; LNCaP, *p=0.042, **p=0.047. […] Total RNA was isolated followed by qPCR with PSA primers.

pY88-H4 = assay: Endogenous H4 Y88-phosphorylation in LNCaP cells; format: cell-based, human; details: 16 hrs (FIG. 5b)
Method: (§5) In FIG. 5(a), equimolar amounts of purified ACK1 and H4 proteins were incubated in the presence of DZ1-067 (100 nM) and reaction subjected to immunoblotting with pY88-H4 antibodies. […] The nuclear lysates were immunoprecipitated with pY88-H4 antibodies followed by immunoblotting with H4. Lower panel is input lysate.

pY88-H4 marks in AR gene = assay: ChIP-qPCR of pY88-H4 marks at the AR gene; format: cell-based, human; details: cells grown in absence of androgen (FIG. 6)
Method: In FIG. 6(a), the human AR gene and two pY88-H4 binding sites are shown. […] VCaP: *p<0.05, **p<0.05; LNCaP: *p<0.05, **p<0.05
To determine whether ACK1 modifies chromatin at AR gene locus, LNCaP and LAPC4 cells grown in the absence of androgen and were treated with DZ1-067. Chromatin immunoprecipitation (ChIP) was performed using pY88-H4 antibodies, followed by real time PCR with primers corresponding to the AR promoter, intron 2 and 3′UTR (FIG. 6a). […] These marks were also deposited at 3′UTR of the AR gene but not at the promoter region (FIG. 6b, c).

[5] = test system: AR and H3K4me3 at intron 2 of AR gene; assay: ChIP-qPCR of AR and H3K4me3 at intron 2 of AR gene; format: cell-based, human; details: absence of androgen (FIG. 7)
Method: LNCaP cells treated with DZ1-067 and ChIP was performed using AR, H3K4me3, or IgG antibodies followed by qPCR using primers corresponding to intron 2, or control region. *p<0.05, **p<0.05, ***p<0.05, ****p<0.05.
To determine the functional and physiological relevance of pY88-H4/WDR5 interaction, and given the interaction of AR with MLL associated complex (Grasso C S, et al. The mutational landscape of lethal castration-resistant prostate cancer. Nature. 2012; 487(7406):239-43). ChIP experiments were performed to determine AR and H3K4me3 levels at the intron 2.

ACK1 [6] = biological target: T1, ACK1; assay: In vitro kinase assay, purified ACK1 and histone H4, pY88-H4 immunoblotting; format: biochemical; parameters: made in house; host or cells: insect cells; details: DZ1-067 100 nM (FIG. 5a)
Method: as §5
To assess direct binding of ACK1 to H4, in vitro kinase assay was performed using purified ACK1 and H4 (New England Biolabs). Human ACK1 was expressed in insect cells and purified to homogeneity. Immunoblotting with pY88-H4 and pTyr antibodies confirmed that indeed H4 is directly Tyr-phosphorylated by ACK1 (FIG. 5a).

[7] = test system: cell line which is dependent upon ACK1; details: literature; read-out: IC50, growth of a cell line dependent upon ACK1; cited from earlier work
[8] = attributed to oxidation of dithiolane ring and NMe2; literature; cited from earlier work
ACK1 [9] = biological target: T1, ACK1; details: literature; read-out: IC50, inhibition of ACK1 autophosphorylation in intact cells; cited from earlier work
prostate xenograft tumor = details: literature; cited from earlier work
ACK1 [10] = biological target: T1, ACK1; assay: EGF-induced ACK1 autophosphorylation (Tyr284) in LAPC4 cells, immunoblotting; format: cell-based; parameters: endogenous in cells; host or cells: LAPC4; details: pretreated with compound, 5 μM (FIG. 8(a))
Method: Inhibition of: LNCaP (FIG. 8(b)); LAPC4 (FIG. 8(c)), and VCaP (FIG. 8(d)) cell growth by AIM-100, (R)-9b, and (S)-9b. Inhibition of ACK1 autophosphorylation in LAPC4 cells treated 5 μM with (R)-9b and (S)-9b (FIG. 8(a)).
ACK1 is a tyrosine kinase that auto-phosphorylates at Tyr284, which is indicative of its kinase activation. To determine inhibitory potential of the compounds from library 9, prostate cancer derived cell line LAPC4 was treated with either EGF ligand alone or added to cells pretreated with the compounds, and equal amounts of cell lysates were subjected to immunoblotting. EGF (epidermal growth factor) ligand causes rapid activation of EGFR (epidermal growth factor receptor), which in turn lead to activation of the ACK1 kinase (FIG. 8(a), lane 2, top panel). […] Actin was used as control, which indicates equal loading of cell lysates (FIG. 8(a), lower panel).

% Inhibition at 10 μM (ELISA) (ACK1 [1]): 91%
inhibition at 10 µM (ACK1 [1]; read-out: % Inhibition at 10 μM (ELISA)): 93%
IC50 (ACK1 [2]; Table 1, unit inferred, (RB) = Reaction Biology, replicates listed, read-out: IC50): 5.6e-08 M and 5.78e-08 M and 6.05e-08 M
IC50 (ACK1 [2]; Table 3, 10-dose, 3-fold dilution from 10 μM, 10 μM ATP, read-out: Compound IC50* (M): ACK1): 6.05e-08 M
IC50 (ACK1 [2]; Table 4, 10-dose, 10 μM ATP, read-out: Compound IC50 (M), ACK1): 5.78e-08 M
IC50 (c-Src): 4.38e-07 M
IC50 (ALK): 1.43e-07 M
IC50 (LNCaP cells; Homo sapiens, LNCaP): 1.8 µM
IC50 (VCaP cells; Homo sapiens, VCaP): 2 µM
H4 Tyr-phosphorylation by purified ACK1 (ACK1 [6]): abrogated
Structure (SMILES): CN1CCN(c2ccc(Nc3ncc(Cl)c(NC[C@H]4CCCO4)n3)cc2)CC1 [DZ1-067, (R)-5-chloro-N2-(4-(4-methylpiperazin-1-yl)phenyl)-N4-((tetrahydrofuran-2-yl)methyl)pyrimidine-2,4-diamine]
AR protein levels (AR [3]): significant downregulation the AR protein
AR mRNA levels (AR [4]): significantly suppressed
endogenous pY88-phosphorylation of H4 in LNCaP cells (pY88-H4): eliminated
pY88-H4 epigenetic marks in AR gene (ChIP) (pY88-H4 marks in AR gene): erased
AR and H3K4me3 methyl marks at intron 2 (ChIP) [5]: abolished

Structure (SMILES): CN(C)CCOc1ccc(-c2oc3ncnc(NCC4SCCS4)c3c2-c2ccccc2)cc1 [Compound 1c]
IC50 [7]: 0.005 µM
pharmacokinetic properties [8]: poor pharmacokinetic properties

Structure (SMILES): COC(C)(C)CCn1nc(Nc2c(C)cccc2C)c2cnc(Nc3ccccc3)nc21 [Compound 2]
IC50 (ACK1 [9]): 0.02 µM

Structure (SMILES): c1ccc(-c2oc3ncnc(NC[C@@H]4CCCO4)c3c2-c2ccccc2)cc1 [AIM-100]
IC50 (LNCaP cells): 7 µM
IC50 (VCaP cells): 4 µM
AR protein levels (AR [3]): concomitant decrease in AR protein levels
castration and radioresistant prostate xenograft tumor growth (prostate xenograft tumor): inhibits
ACK1 activation (autophosphorylation) in EGF-treated LAPC4 cells (ACK1 [10]): significant reduction in ACK1 activation
